In patent publication US20090298897A1, “Treatment of Inflammatory Disorders With Triazole Compounds” (priority 2006, published 2009):
Values joined by “and” are separate entries in the source; they are usually repeats but may differ in a detail not shown here. Equal values may be shown once.

Columns and labels:
[1] = system: SLS-induced irritant dermatitis; experiment: Irritant dermatitis induced by sodium lauryl sulfate (SLS); type: in vivo, human; settings: 0.35% gel, 4 days pre-treatment and 5 days during 2% SLS; healthy volunteers
Description: Rambazole (0.35%) gel was applied as a pre-treatment during four days. Inflammation was induced by applying 2% SLS during 2 hours in rings on the arm of twelve healthy volunteers once a day for five days. Rambazole (0.35%) gel was applied during the five days of induced inflammation. Skin reactions of non-treated and rambazole gel-treated skin sites were assessed 24 hours after each application with SLS and 72 hours after the last SLS application (visual scoring of redness, chromametry, TEWL).

[2] = system: moderate to severe facial acne vulgaris; experiment: Treatment of acne vulgaris with oral rambazole (lesion counts); type: in vivo, human; settings: for Table 3 (untitled, lesion count), Max. / Table 3 (untitled, lesion count), Mean / Table 3 (untitled, lesion count), Median / Table 3 (untitled, lesion count), Min. / Table 6 (untitled, summary of Table 5 lesion count), Max. / Table 6 (untitled, summary of Table 5 lesion count), Mean / Table 6 (untitled, summary of Table 5 lesion count), Median / Table 6 (untitled, summary of Table 5 lesion count), Min. / Table 4 (untitled, change of Table 3 count versus Visit 2), Max. / Table 4 (untitled, change of Table 3 count versus Visit 2), Mean / Table 4 (untitled, change of Table 3 count versus Visit 2), Median / Table 4 (untitled, change of Table 3 count versus Visit 2), Min. / Table 7 (untitled, change of Table 6 count versus Visit 2), Max. / Table 7 (untitled, change of Table 6 count versus Visit 2), Mean / Table 7 (untitled, change of Table 6 count versus Visit 2), Median / Table 7 (untitled, change of Table 6 count versus Visit 2), Min.: N 16; for Table 5 (untitled, lesion count per subject): individual subjects; for No. of Responders (≧50% reduction in inflammatory lesions): of 16 subjects
Description: Sixteen patients with moderate to severe facial acne vulgaris received a daily oral dose of 1 mg of rambazole for 12 weeks. […] The average lesion reduction was 79%. See Tables 3 through 7 for additional individual data. See FIGS. 5 and 6, respectively, for a comparison of the response to treatment of inflammatory lesions versus non-inflammatory lesions.

`CCC(CC)C(c1ccc(Nc2nc3ccccc3s2)cc1)n1cncn1` (centres unmarked) [rambazole] was tested, and the “inflammatory response induced by application of SLS (visual scoring of redness, chromametry, TEWL)” value [1] was “inhibits the inflammatory response”, the serious adverse effects ([2]; 1 mg oral daily for 12 weeks) was “No serious adverse effects were reported” and the “Table 3 (untitled, lesion count), Max.” value ([2]; Visit No. 2) was 170. The “Table 3 (untitled, lesion count), Mean” value ([2]; Visit No. 2) was 56.2, the “Table 3 (untitled, lesion count), Median” value ([2]; Visit No. 2) was 48.0 and the “Table 3 (untitled, lesion count), Min.” value ([2]; Visit No. 2) was 15. For the same compound, the “Table 6 (untitled, summary of Table 5 lesion count), Max.” value ([2]; Visit No. 2) was 199, the “Table 6 (untitled, summary of Table 5 lesion count), Mean” value ([2]; Visit No. 2) was 81.3 and the “Table 6 (untitled, summary of Table 5 lesion count), Median” value ([2]; Visit No. 2) was 87.0. For the same compound, the “Table 6 (untitled, summary of Table 5 lesion count), Min.” value ([2]; Visit No. 2) was 22, the “Table 5 (untitled, lesion count per subject)” value ([2]; Visit No. 2) was 22 and 46 and 63 and 25 and 23 and 93 (2×) and 72 and 49 and 89 and 110 and 199 and 121 and 95 and 115 and 85 and the “Table 3 (untitled, lesion count), Max.” value ([2]; Visit No. 4) was 77. For the same compound, the “Table 3 (untitled, lesion count), Mean” value ([2]; Visit No. 4) was 34.4, the “Table 3 (untitled, lesion count), Median” value ([2]; Visit No. 4) was 34.5 and the “Table 3 (untitled, lesion count), Min.” value ([2]; Visit No. 4) was 3. The “Table 4 (untitled, change of Table 3 count versus Visit 2), Max.” value ([2]; Visit No. 4) was 15, the “Table 4 (untitled, change of Table 3 count versus Visit 2), Mean” value ([2]; Visit No. 4) was −21.8 and the “Table 4 (untitled, change of Table 3 count versus Visit 2), Median” value ([2]; Visit No. 4) was −10.0. The “Table 4 (untitled, change of Table 3 count versus Visit 2), Min.” value ([2]; Visit No. 4) was −159, the “Table 6 (untitled, summary of Table 5 lesion count), Max.” value ([2]; Visit No. 4) was 122 and the “Table 6 (untitled, summary of Table 5 lesion count), Mean” value ([2]; Visit No. 4) was 51.4. The “Table 6 (untitled, summary of Table 5 lesion count), Median” value ([2]; Visit No. 4) was 49.5, the “Table 6 (untitled, summary of Table 5 lesion count), Min.” value ([2]; Visit No. 4) was 3 and the “Table 7 (untitled, change of Table 6 count versus Visit 2), Max.” value ([2]; Visit No. 4) was 10. For the same compound, the “Table 7 (untitled, change of Table 6 count versus Visit 2), Mean” value ([2]; Visit No. 4) was −29.9, the “Table 7 (untitled, change of Table 6 count versus Visit 2), Median” value ([2]; Visit No. 4) was −17.5 and the “Table 7 (untitled, change of Table 6 count versus Visit 2), Min.” value ([2]; Visit No. 4) was −159. The “Table 5 (untitled, lesion count per subject)” value ([2]; Visit No. 4) was 11 and 3 and 12 and 30 and 21 and 71 and 58 and 59 and 80 and 45 and 89 and 40 and 48 and 82 and 122 and 51, the “Table 3 (untitled, lesion count), Max.” value ([2]; Visit No. 5) was 94 and the “Table 3 (untitled, lesion count), Mean” value ([2]; Visit No. 5) was 26.4. For the same compound, the “Table 3 (untitled, lesion count), Median” value ([2]; Visit No. 5) was 27.0, the “Table 3 (untitled, lesion count), Min.” value ([2]; Visit No. 5) was 1 and the “Table 4 (untitled, change of Table 3 count versus Visit 2), Max.” value ([2]; Visit No. 5) was 19. For the same compound, the “Table 4 (untitled, change of Table 3 count versus Visit 2), Mean” value ([2]; Visit No. 5) was −29.8, the “Table 4 (untitled, change of Table 3 count versus Visit 2), Median” value ([2]; Visit No. 5) was −22.0 and the “Table 4 (untitled, change of Table 3 count versus Visit 2), Min.” value ([2]; Visit No. 5) was −142. The “Table 6 (untitled, summary of Table 5 lesion count), Max.” value ([2]; Visit No. 5) was 146, the “Table 6 (untitled, summary of Table 5 lesion count), Mean” value ([2]; Visit No. 5) was 39.5 and the “Table 6 (untitled, summary of Table 5 lesion count), Median” value ([2]; Visit No. 5) was 40.5. The “Table 6 (untitled, summary of Table 5 lesion count), Min.” value ([2]; Visit No. 5) was 1, the “Table 7 (untitled, change of Table 6 count versus Visit 2), Max.” value ([2]; Visit No. 5) was 31 and the “Table 7 (untitled, change of Table 6 count versus Visit 2), Mean” value ([2]; Visit No. 5) was −41.8. The “Table 7 (untitled, change of Table 6 count versus Visit 2), Median” value ([2]; Visit No. 5) was −45.0, the “Table 7 (untitled, change of Table 6 count versus Visit 2), Min.” value ([2]; Visit No. 5) was −140 and the “Table 5 (untitled, lesion count per subject)” value ([2]; Visit No. 5) was 9 and 1 and 4 (2×) and 2 (2×) and 48 and 64 and 42 and 39 and 33 and 80 and 59 and 55 and 44 and 146. The “Table 3 (untitled, lesion count), Max.” value ([2]; Visit No. 6) was 37, the “Table 3 (untitled, lesion count), Mean” value ([2]; Visit No. 6) was 12.8 and the “Table 3 (untitled, lesion count), Median” value ([2]; Visit No. 6) was 13.5. For the same compound, the “Table 3 (untitled, lesion count), Min.” value ([2]; Visit No. 6) was 0, the “Table 4 (untitled, change of Table 3 count versus Visit 2), Max.” value ([2]; Visit No. 6) was −12 and the “Table 4 (untitled, change of Table 3 count versus Visit 2), Mean” value ([2]; Visit No. 6) was −43.4. The “Table 4 (untitled, change of Table 3 count versus Visit 2), Median” value ([2]; Visit No. 6) was −34.0, the “Table 4 (untitled, change of Table 3 count versus Visit 2), Min.” value ([2]; Visit No. 6) was −165 and the “Table 6 (untitled, summary of Table 5 lesion count), Max.” value ([2]; Visit No. 6) was 65. The “Table 6 (untitled, summary of Table 5 lesion count), Mean” value ([2]; Visit No. 6) was 22.6, the “Table 6 (untitled, summary of Table 5 lesion count), Median” value ([2]; Visit No. 6) was 26.0 and the “Table 6 (untitled, summary of Table 5 lesion count), Min.” value ([2]; Visit No. 6) was 0. For the same compound, the “Table 7 (untitled, change of Table 6 count versus Visit 2), Max.” value ([2]; Visit No. 6) was −22, the “Table 7 (untitled, change of Table 6 count versus Visit 2), Mean” value ([2]; Visit No. 6) was −58.6 and the “Table 7 (untitled, change of Table 6 count versus Visit 2), Median” value ([2]; Visit No. 6) was −58.5. The “Table 7 (untitled, change of Table 6 count versus Visit 2), Min.” value ([2]; Visit No. 6) was −165, the “Table 5 (untitled, lesion count per subject)” value ([2]; Visit No. 6) was 0 (2×) and 1 (2×) and 3 (2×) and 25 and 37 and 22 and 34 (2×) and 29 and 41 and 40 and 27 and 65 and the “Table 3 (untitled, lesion count), Max.” value ([2]; Visit No. 7) was 56. For the same compound, the “Table 3 (untitled, lesion count), Mean” value ([2]; Visit No. 7) was 13.3, the “Table 3 (untitled, lesion count), Median” value ([2]; Visit No. 7) was 8.0 and the “Table 3 (untitled, lesion count), Min.” value ([2]; Visit No. 7) was 0. The “Table 4 (untitled, change of Table 3 count versus Visit 2), Max.” value ([2]; Visit No. 7) was −14, the “Table 4 (untitled, change of Table 3 count versus Visit 2), Mean” value ([2]; Visit No. 7) was −42.9 and the “Table 4 (untitled, change of Table 3 count versus Visit 2), Median” value ([2]; Visit No. 7) was −35.0. The “Table 4 (untitled, change of Table 3 count versus Visit 2), Min.” value ([2]; Visit No. 7) was −159, the “Table 6 (untitled, summary of Table 5 lesion count), Max.” value ([2]; Visit No. 7) was 71 and the “Table 6 (untitled, summary of Table 5 lesion count), Mean” value ([2]; Visit No. 7) was 21.3. For the same compound, the “Table 6 (untitled, summary of Table 5 lesion count), Median” value ([2]; Visit No. 7) was 13.5, the “Table 6 (untitled, summary of Table 5 lesion count), Min.” value ([2]; Visit No. 7) was 0 and the “Table 7 (untitled, change of Table 6 count versus Visit 2), Max.” value ([2]; Visit No. 7) was −22. The “Table 7 (untitled, change of Table 6 count versus Visit 2), Mean” value ([2]; Visit No. 7) was −59.9, the “Table 7 (untitled, change of Table 6 count versus Visit 2), Median” value ([2]; Visit No. 7) was −52.5 and the “Table 7 (untitled, change of Table 6 count versus Visit 2), Min.” value ([2]; Visit No. 7) was −178. The “Table 5 (untitled, lesion count per subject)” value ([2]; Visit No. 7) was 0 (2×) and 4 and 2 and 1 and 5 and 38 and 25 and 39 and 6 and 35 and 21 and 71 and 31 and 60 and 3, the “Percent Responders (≧50% reduction in inflammatory lesions)” value ([2]; Week 4, 1 mg oral daily) was 31% and the “No. of Responders (≧50% reduction in inflammatory lesions)” value ([2]; Week 4) was 5. The “Percent Responders (≧50% reduction in inflammatory lesions)” value ([2]; Week 8, 1 mg oral daily) was 56%, the “No. of Responders (≧50% reduction in inflammatory lesions)” value ([2]; Week 8) was 9 and the “Percent Responders (≧50% reduction in inflammatory lesions)” value ([2]; Week 12, 1 mg oral daily) was 100%. For the same compound, the “No. of Responders (≧50% reduction in inflammatory lesions)” value ([2]; Week 12) was 16, the “Percent Responders (≧50% reduction in inflammatory lesions)” value ([2]; Week 16 (follow-up)) was 88% and the “No. of Responders (≧50% reduction in inflammatory lesions)” value ([2]; Week 16 (follow-up)) was 14. For the same compound, the average lesion reduction ([2]; after 12 weeks, 1 mg oral daily) was 79% and the “time within which inflammatory lesions responded” value ([2]; rambazole-treated inflammatory lesions, in contrast with retinoids such as isotretinoin) was ≤ 4 weeks.
